Data reported in patent US5952308A, “Mineral absorption promoting agent” (Pola Chemical Industries Inc., priority 1991, dated 1999).

What was measured:
hemoglobin = experiment: Mineral absorption promoting effect test on animals (hemoglobin increase, iron utilization); format: in vivo, Wistar male rats
Experimental: Wistar male rats (body weight:80 g) were feeded for 3 weeks, giving iron-free feed, ferrous sulfate-added feed (iron: 12 ppm), or ferrous sulfate and oligogalacturonic acid-added feed (iron: 12 ppm, powder oligogalacturonic acid obtained in the preparation method 1=0.5%).
During the period, hemoglobin concentration in blood was measured every 7 days, and utilization ratios of iron in each of these feeds were compared, using hemoglobin increase (hemoglobin concentration in blood×blood volume) as an index.
Net increase of hemoglobin (number of tested rats = 10); unit: […]

Wistar rat = experiment: Acute toxicity test of oligogalacturonic acid; settings: in vivo, po
Experimental: Acute toxicity test of oligogalacturonic acid
Animal: Wistar rat: One group comprising
10 each of male and female rats
Specimen: 50% oligogalacturonic acid aqueous
Oral forced administration
Dosage: Group 1 10 ml/kg

Substance	Net increase of hemoglobin, 7th day (hemoglobin; 7th day, feed with iron 12 ppm, n = 10 rats, ± SD) [g]	Net increase of hemoglobin, 14th day (hemoglobin; 14th day, feed with iron 12 ppm, n = 10 rats, ± SD) [g]	Net increase of hemoglobin, 21st day (hemoglobin; 21st day, feed with iron 12 ppm, n = 10 rats, ± SD) [g]	Net increase of hemoglobin, at start (hemoglobin; at start, feed with iron 12 ppm, n = 10 rats, ± SD) [g]	Utilization ratio (hemoglobin; iron in feed, 3 weeks, index hemoglobin increase (hemoglobin concentration in blood×blood volume)) [%]	autopsy after 14 days (Wistar rat)
ferrous sulfate	0.2 ± 0.1	0.3 ± 0.1	0.4 ± 0.2	0	33	–
oligogalacturonic acid	–	–	–	–	–	no abnormal sign
